Measured values reported in the supplement of paper PMC10307832.

Columns and labels:
Experiment in all cases: relative viability (nuclei count vs DMSO), 5 days (fraction); higher = more cells survive
[1] = compound: CN(c1ncccc1CNc1nc(Nc2ccc3c(c2)CC(=O)N3)ncc1C(F)(F)F)S(C)(=O)=O
Summary of the method: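 A plate was accepted only when its control CV was below 25% and the cells had doubled at least once. Viability is defined from nuclear counts as treated wells divided by vehicle wells, with the median taken across plates. That median covers lung cancer cell lines grown in 1536-well plates, dosed by pinning at five √10-spaced library-drug concentrations, and counted in MetaXpress from 4× Hoechst images after 5 days.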

[2] = compound: CN(c1ncccc1CNc1nc(Nc2ccc3c(c2)CC(=O)N3)ncc1C(F)(F)F)S(C)(=O)=O + CC(=O)Nc1cccc(-n2c(=O)n(C3CC3)c(=O)c3c(Nc4ccc(I)cc4F)n(C)c(=O)c(C)c32)c1 [Trametinib] (partner 0.02 µM)
Summary of the method: (§1)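 Dosing by pin tool came one day after lung cancer cell lines were seeded in 1536-well plates, using either one drug or a fixed anchor-drug dose plus five library-drug doses (not always all listed) in √10 steps. After 5 days, nuclei were counted on 4× images. Relative viability is treated-well nuclei count divided by vehicle-well nuclei count, and values are medians of duplicate plates.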

[3] = compound: CN(c1ncccc1CNc1nc(Nc2ccc3c(c2)CC(=O)N3)ncc1C(F)(F)F)S(C)(=O)=O + COc1cccc2cc(-c3nc([C@H]4CC[C@H](C(=O)O)CC4)n4ncnc(N)c34)[nH]c12 [OSI-027] (partner 0.5 µM)
Summary of the method: as §1

[4] = compound: CN(c1ncccc1CNc1nc(Nc2ccc3c(c2)CC(=O)N3)ncc1C(F)(F)F)S(C)(=O)=O + N=C(N)NC(=N)NCCc1ccccc1 [Phenformin] (partner 250 µM)
Summary of the method: as §1

| Cell Line | relative viability ([1]; 0.01 µM) | relative viability ([1]; 0.03162 µM) | relative viability ([1]; 0.1 µM) | relative viability ([1]; 0.3162 µM) | relative viability ([1]; 1 µM) | relative viability ([2]; first compound 0.01 µM) | relative viability ([2]; first compound 0.03162 µM) | relative viability ([2]; first compound 0.1 µM) | relative viability ([2]; first compound 0.3162 µM) | relative viability ([2]; first compound 1 µM) | relative viability ([3]; first compound 0.01 µM) | relative viability ([3]; first compound 0.03162 µM) | relative viability ([3]; first compound 0.1 µM) | relative viability ([3]; first compound 0.3162 µM) | relative viability ([3]; first compound 1 µM) | relative viability ([4]; first compound 0.01 µM) | relative viability ([4]; first compound 0.03162 µM) | relative viability ([4]; first compound 0.1 µM) | relative viability ([4]; first compound 0.3162 µM) | relative viability ([4]; first compound 1 µM) |
| --- | --- | --- | --- | --- | --- | --- | --- | --- | --- | --- | --- | --- | --- | --- | --- | --- | --- | --- | --- | --- |
| 201T | 1.02 | 0.951 | 0.911 | 0.949 | 0.961 | 0.709 | 0.712 | 0.664 | 0.669 | 0.67 | 0.658 | 0.702 | 0.741 | 0.663 | 0.648 | 0.43 | 0.394 | 0.445 | 0.443 | 0.437 |
| A549 | 1.04 | 1.17 | 0.922 | 0.95 | 0.95 | – | – | – | – | – | – | – | – | – | – | 0.189 | 0.205 | 0.173 | 0.133 | 0.152 |
| A-427 | 1.01 | 1.02 | 0.944 | 1.02 | 1.05 | 0.722 | 0.791 | 0.67 | 0.821 | 0.741 | 0.472 | 0.553 | 0.504 | 0.44 | 0.475 | 0.337 | 0.315 | 0.353 | 0.269 | 0.291 |
| ABC-1 | 0.947 | 0.818 | 0.926 | 0.899 | 0.879 | – | – | – | – | – | 0.424 | 0.537 | 0.432 | 0.498 | 0.499 | 0.214 | 0.238 | 0.26 | 0.279 | 0.229 |
| BEN | 1.05 | 1.06 | 1.03 | 1 | 1.02 | 0.954 | 1.19 | 0.92 | 1.02 | 0.869 | 0.294 | 0.293 | 0.276 | 0.304 | 0.284 | 0.253 | 0.281 | 0.268 | 0.336 | 0.246 |
| CAL-12T | 1.03 | 0.979 | 0.914 | 0.865 | 0.849 | 0.363 | 0.304 | 0.32 | 0.358 | 0.357 | 0.725 | 0.874 | 0.58 | 0.719 | 0.514 | 0.628 | 0.523 | 0.536 | 0.512 | 0.444 |
| COR-L23 | 1.01 | 1.1 | 0.981 | 1 | 0.8 | 0.563 | 0.66 | 0.57 | 0.605 | 0.516 | 0.782 | 0.722 | 0.681 | 0.756 | 0.642 | 0.464 | 0.54 | 0.416 | 0.424 | 0.332 |
| COR-L 105 | 1.04 | 0.955 | 0.945 | 0.874 | 0.92 | 0.459 | 0.419 | 0.453 | 0.479 | 0.445 | 0.668 | 0.784 | 0.747 | 0.615 | 0.583 | 0.46 | 0.493 | 0.45 | 0.418 | 0.492 |
| Calu-6 | 1.06 | 0.99 | 0.945 | 0.961 | 0.863 | – | – | – | – | – | – | – | – | – | – | – | – | – | – | – |
| ChaGo-K-1 | 0.963 | 1.08 | 0.948 | 0.96 | 1.02 | 0.959 | 0.923 | 0.999 | 0.912 | 0.849 | 0.537 | 0.566 | 0.544 | 0.538 | 0.659 | 0.489 | 0.444 | 0.461 | 0.489 | 0.404 |
| EKVX | 0.971 | 1.08 | 0.945 | 0.883 | 0.88 | 0.355 | 0.374 | 0.244 | 0.319 | 0.262 | 0.757 | 0.711 | 0.618 | 0.685 | 0.614 | 0.251 | 0.236 | 0.24 | 0.231 | 0.24 |
| EMC-BAC-2 | 1.02 | 0.921 | 0.938 | 0.948 | 0.948 | 0.872 | 0.887 | 0.855 | 0.841 | 0.722 | 0.377 | 0.364 | 0.339 | 0.418 | 0.371 | 0.628 | 0.568 | 0.496 | 0.551 | 0.452 |
| EPLC-272H | 0.948 | 0.955 | 1.01 | 1.18 | 0.875 | 0.288 | 0.294 | 0.247 | 0.319 | 0.277 | 0.276 | 0.294 | 0.305 | 0.344 | 0.279 | 0.307 | 0.309 | 0.339 | 0.327 | 0.345 |
| H3255 | 0.974 | 1.07 | 0.95 | 0.906 | 0.972 | 0.688 | 0.675 | 0.549 | 0.601 | 0.576 | 0.606 | 0.611 | 0.488 | 0.568 | 0.598 | 0.34 | 0.339 | 0.316 | 0.384 | 0.342 |
| HARA | 0.943 | 0.757 | 0.937 | 0.874 | 0.787 | 0.816 | 0.63 | 0.439 | 0.63 | 0.723 | 0.54 | 0.481 | 0.524 | 0.612 | 0.55 | 0.449 | 0.5 | 0.532 | 0.432 | 0.356 |
| HCC-15 | 1.02 | 1.06 | 0.888 | 0.908 | 0.853 | 0.344 | 0.378 | 0.35 | 0.35 | 0.336 | 0.748 | 0.699 | 0.675 | 0.626 | 0.527 | 0.492 | 0.501 | 0.463 | 0.384 | 0.405 |
| HCC-44 | 0.956 | 0.941 | 0.917 | 1 | 0.984 | 1.02 | 1.05 | 0.959 | 1.09 | 1.12 | 0.575 | 0.491 | 0.496 | – | 0.703 | 0.193 | 0.171 | 0.297 | 0.239 | 0.316 |
